Laboratory results taken from paper PMC8309005, “Novel Non-Congeneric Derivatives of the Choline Kinase Alpha Inhibitor ICL-CCIC-0019” (Pharmaceutics, 2021).

Columns and labels:
[1] = biological target: DGK b (Homo sapiens, UniProt Q9Y6T7); test: Lipid kinase screening (ADP-Glo), DGK b; format: biochemical
Procedure: (§1) The lipid kinase screening for ICL-CCIC-0019, CK14, CK145 (5), CK146 (4) and CK147 (8) (testing concentration for all compounds: 10 μM) was performed by MRC PPU International Centre for Kinase Profiling (Dundee, UK). The lipid kinase screening panel includes 15 human recombinant lipid kinases and the tests used Promega ADP Glo^TM High Throughput Assay kit (Promega, Southampton, UK). For each assay, reference compounds were used as quality control. Finally, mean percentage activity inhibited by compounds and standard deviation for all the repeats were calculated.

[2] = Caco-2 permeability and efflux study; format: in vitro ADME, human; settings: human; for efflux ratio: Caco-2, read-out: Efflux ratio (Papp B-A/Papp A-B); for Papp A→B: Caco-2, apical to basolateral, read-out: Papp A-B; for Papp B→A: Caco-2, basolateral to apical, read-out: Papp B-A
Procedure: (§2) The ADME study for ICL-CCIC-0019, CK14, CK145 (5), CK146 (4) and CK147 (8) was performed by Charles River Drug Discovery Services (Essex, UK).
(§3) The predicted in vitro pharmacokinetic characteristics of compounds were evaluated by four ADME assays, namely kinetic solubility assay, metabolic stability assay using human liver microsome S9, permeability and efflux study using the Caco-2 cell line, and matrix stability assay using fasted state simulated gastric fluid (FaSSGF). All tested CHKA inhibitors were highly soluble (>150 μM) in 0.1 M PBS (2% DMSO) (Table 1). […] The in vivo clearance was calculated to predict the actual clearance in humans by scaling the clearance values, which takes into account liver weight, microsomes per liver and liver blood flow. […] In Caco-2 cell permeability assay, drug permeability was investigated and presented as apparent permeability coefficients (Papp) in A to B (A-B, apical to basolateral direction) and B to A (B-A, basolateral to apical direction).

[3] = system: A549 cells; test: Anti-proliferative SRB assay, A549; format: cell-based; settings: Homo sapiens, 72 h, Table S2, ± SD
Procedure: (§4) Half-maximal growth inhibitory concentrations (GI50) were determined using sulforhodamine B (SRB) assay as described elsewhere. In brief, cells were seeded in 96-wells at respective cell densities determined by their cell growth curves. After 24 h, the cells were treated in six replicates with medium or different concentrations of CHKA inhibitors in medium and incubated for another 72 h. On completion of incubation, the cells were fixed with 10% trichloroacetic acid (TCA) and stained with 0.4% SRB in 1% acetic acid. The stained protein was solubilized with 10 mM Tris base and optical density values were measured at 540 nm using a Multiskan® EX Micro plate photometer (Thermo Scientific, Loughborough, UK). Growth inhibition curves were plotted as percentage of the control groups and GI50 data were determined by least squares fitting method using GraphPad Prism 7.0. All the chemicals used in this experiment were obtained from Sigma-Aldrich (Gillingham, UK).

[4] = biological target: T1, PIP5K2A (Homo sapiens, UniProt P48426); test: Lipid kinase screening (ADP-Glo), PIP5K2A; format: biochemical
T1 sequence (P48426 1-406): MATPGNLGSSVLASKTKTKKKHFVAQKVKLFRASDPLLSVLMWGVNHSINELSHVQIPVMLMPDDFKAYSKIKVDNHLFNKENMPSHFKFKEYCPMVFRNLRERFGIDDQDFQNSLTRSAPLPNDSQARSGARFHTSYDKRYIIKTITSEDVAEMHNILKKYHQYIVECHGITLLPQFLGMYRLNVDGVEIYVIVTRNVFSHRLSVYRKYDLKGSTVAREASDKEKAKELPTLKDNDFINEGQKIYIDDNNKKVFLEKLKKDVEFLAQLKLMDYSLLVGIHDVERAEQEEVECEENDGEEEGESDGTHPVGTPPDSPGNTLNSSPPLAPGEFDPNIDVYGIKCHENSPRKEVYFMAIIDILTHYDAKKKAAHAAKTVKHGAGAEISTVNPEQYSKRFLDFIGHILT
Procedure: as §1

[5] = biological target: CHK a (CHKA) (Homo sapiens, UniProt P35790); test: Lipid kinase screening (ADP-Glo), CHKA; format: biochemical; settings: for % Inhibition CHK a: 10 μM
Procedure: as §1

[6] = biological target: PI3K a (Homo sapiens, UniProt P42336); test: Lipid kinase screening (ADP-Glo), PI3K a; format: biochemical
Sequence of PI3K a (P42336 whole entry): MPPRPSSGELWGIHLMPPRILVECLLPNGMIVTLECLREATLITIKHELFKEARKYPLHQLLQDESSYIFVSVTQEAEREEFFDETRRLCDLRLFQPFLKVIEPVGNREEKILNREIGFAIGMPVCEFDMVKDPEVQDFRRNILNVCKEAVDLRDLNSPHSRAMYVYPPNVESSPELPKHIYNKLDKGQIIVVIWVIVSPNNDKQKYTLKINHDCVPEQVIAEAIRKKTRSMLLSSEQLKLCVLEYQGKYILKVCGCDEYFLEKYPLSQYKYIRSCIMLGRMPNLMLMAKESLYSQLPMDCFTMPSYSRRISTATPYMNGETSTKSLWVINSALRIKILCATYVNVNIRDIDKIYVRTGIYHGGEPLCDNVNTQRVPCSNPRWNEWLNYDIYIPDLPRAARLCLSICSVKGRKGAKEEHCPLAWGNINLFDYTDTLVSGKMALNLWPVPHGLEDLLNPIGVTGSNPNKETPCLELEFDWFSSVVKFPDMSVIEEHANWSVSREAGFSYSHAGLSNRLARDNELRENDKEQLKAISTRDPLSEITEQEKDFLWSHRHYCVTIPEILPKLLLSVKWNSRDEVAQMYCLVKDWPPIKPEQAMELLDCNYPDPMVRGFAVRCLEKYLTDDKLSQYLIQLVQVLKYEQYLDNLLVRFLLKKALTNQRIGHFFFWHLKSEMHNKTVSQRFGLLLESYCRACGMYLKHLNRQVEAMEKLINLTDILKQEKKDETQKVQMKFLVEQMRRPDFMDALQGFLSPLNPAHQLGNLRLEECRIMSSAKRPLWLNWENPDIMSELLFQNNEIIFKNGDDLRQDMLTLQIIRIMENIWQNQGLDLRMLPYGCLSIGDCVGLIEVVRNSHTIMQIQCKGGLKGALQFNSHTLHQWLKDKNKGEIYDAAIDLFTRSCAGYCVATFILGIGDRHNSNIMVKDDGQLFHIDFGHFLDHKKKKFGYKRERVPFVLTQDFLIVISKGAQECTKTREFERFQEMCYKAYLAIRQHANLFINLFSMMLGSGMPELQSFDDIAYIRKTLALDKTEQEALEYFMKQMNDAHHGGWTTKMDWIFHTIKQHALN
Sequence of PI3K a (P27986 whole entry partner): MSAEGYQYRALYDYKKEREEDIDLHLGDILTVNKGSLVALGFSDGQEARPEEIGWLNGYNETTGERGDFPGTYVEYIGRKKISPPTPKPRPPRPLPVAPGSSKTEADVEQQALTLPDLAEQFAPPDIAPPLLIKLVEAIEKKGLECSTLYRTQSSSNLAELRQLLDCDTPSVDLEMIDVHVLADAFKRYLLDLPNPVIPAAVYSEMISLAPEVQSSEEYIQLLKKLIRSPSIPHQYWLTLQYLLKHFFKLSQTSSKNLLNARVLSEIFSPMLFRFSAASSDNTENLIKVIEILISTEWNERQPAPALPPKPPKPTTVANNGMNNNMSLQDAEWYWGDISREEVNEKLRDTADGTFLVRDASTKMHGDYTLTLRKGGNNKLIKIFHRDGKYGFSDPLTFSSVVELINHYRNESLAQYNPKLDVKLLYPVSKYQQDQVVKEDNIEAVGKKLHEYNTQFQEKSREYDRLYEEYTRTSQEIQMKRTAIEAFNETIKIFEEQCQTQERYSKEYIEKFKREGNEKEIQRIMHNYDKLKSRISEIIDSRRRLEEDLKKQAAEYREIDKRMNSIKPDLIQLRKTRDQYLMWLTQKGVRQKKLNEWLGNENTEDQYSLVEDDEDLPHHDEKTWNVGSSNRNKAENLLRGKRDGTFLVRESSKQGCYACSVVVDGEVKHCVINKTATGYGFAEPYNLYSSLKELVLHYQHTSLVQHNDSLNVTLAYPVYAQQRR
Procedure: as §1

[7] = biological target: PI3K g (Homo sapiens, UniProt P48736); test: Lipid kinase screening (ADP-Glo), PI3K g; format: biochemical
Procedure: as §1

[8] = biological target: PI3Ka E545K + p85 (Homo sapiens, UniProt P42336, E545K); test: Lipid kinase screening (ADP-Glo), PI3Ka E545K + p85; format: biochemical
Sequence of PI3Ka E545K + p85 (P42336 whole entry E545K): as the sequence (P42336 whole entry) above, with E545K counted along it
Sequence of PI3Ka E545K + p85 (P27986 whole entry partner): as the sequence (P27986 whole entry partner) above
Procedure: as §1

[9] = system: four cancer cell lines (HCT-116, A549, HepG2, Caco-2); test: Anti-proliferative SRB assay, mean of four cancer cell lines; format: cell-based; settings: Homo sapiens
Procedure: as §4

[10] = biological target: PI3K b (Homo sapiens, UniProt P42338); test: Lipid kinase screening (ADP-Glo), PI3K b; format: biochemical
Sequence of PI3K b (P42338 whole entry): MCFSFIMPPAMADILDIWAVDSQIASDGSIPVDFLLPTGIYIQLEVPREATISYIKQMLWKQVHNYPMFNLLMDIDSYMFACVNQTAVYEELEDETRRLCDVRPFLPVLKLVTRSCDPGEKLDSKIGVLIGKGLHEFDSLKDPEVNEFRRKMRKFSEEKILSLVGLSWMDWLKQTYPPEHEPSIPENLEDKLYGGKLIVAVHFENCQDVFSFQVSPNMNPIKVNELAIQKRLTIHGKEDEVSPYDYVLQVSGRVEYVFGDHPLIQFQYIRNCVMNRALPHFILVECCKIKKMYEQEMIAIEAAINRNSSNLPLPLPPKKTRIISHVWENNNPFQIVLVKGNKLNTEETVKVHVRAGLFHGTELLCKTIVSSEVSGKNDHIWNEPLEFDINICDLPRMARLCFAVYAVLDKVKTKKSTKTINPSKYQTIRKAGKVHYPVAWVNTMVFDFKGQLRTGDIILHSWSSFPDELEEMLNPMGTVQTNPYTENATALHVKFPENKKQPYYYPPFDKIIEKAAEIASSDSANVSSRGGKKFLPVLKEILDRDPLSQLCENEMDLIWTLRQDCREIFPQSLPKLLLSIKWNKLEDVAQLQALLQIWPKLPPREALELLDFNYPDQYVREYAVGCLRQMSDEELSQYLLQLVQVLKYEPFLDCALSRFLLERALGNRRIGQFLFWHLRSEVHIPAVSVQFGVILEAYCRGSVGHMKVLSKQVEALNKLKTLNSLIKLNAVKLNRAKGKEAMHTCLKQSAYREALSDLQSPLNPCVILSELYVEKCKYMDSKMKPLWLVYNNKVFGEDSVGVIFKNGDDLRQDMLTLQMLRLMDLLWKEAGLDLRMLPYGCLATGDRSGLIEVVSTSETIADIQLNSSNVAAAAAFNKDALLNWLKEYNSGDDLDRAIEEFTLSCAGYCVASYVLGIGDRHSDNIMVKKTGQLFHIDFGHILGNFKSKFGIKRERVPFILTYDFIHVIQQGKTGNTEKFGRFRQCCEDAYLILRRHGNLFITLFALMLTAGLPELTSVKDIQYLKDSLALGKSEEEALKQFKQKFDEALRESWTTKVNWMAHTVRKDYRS
Sequence of PI3K b (P27986 whole entry partner): as the sequence (P27986 whole entry partner) above
Procedure: as §1

[11] = system: PI3Ka E524K + p85; test: Lipid kinase screening (ADP-Glo), PI3Ka E524K + p85; format: biochemical, human; settings: 10 μM
Procedure: as §1

[12] = system: HCT-116 cells; test: Anti-proliferative SRB assay, HCT-116; format: cell-based; settings: Homo sapiens
Procedure: as §4

[13] = system: Caco-2 cells; test: Anti-proliferative SRB assay, Caco-2; format: cell-based; settings: Homo sapiens; Caco-2, SRB, 72 h; Table S2, ± SD
Procedure: as §4

[14] = Matrix stability assay in fasted state simulated gastric fluid (FaSSGF); format: in vitro ADME; settings: for Matrix Stability: Remaining %: FaSSGF; for half-life: fasted state simulated gastric fluid (FaSSGF), fasted state simulated gastric fluid, pH 1.6, read-out: FaSSGF stability Half-life (converted)
Procedure: as §2, §3

[15] = system: 22Rv1 cell line; test: Anti-proliferative SRB assay, 22Rv1; format: cell-based; settings: Homo sapiens; 22Rv1, PSMA +; Table S3, ± SD
Procedure: as §4

[16] = biological target: DGK g (Homo sapiens, UniProt P49619); test: Lipid kinase screening (ADP-Glo), DGK g; format: biochemical
Sequence of DGK g (P49619 whole entry): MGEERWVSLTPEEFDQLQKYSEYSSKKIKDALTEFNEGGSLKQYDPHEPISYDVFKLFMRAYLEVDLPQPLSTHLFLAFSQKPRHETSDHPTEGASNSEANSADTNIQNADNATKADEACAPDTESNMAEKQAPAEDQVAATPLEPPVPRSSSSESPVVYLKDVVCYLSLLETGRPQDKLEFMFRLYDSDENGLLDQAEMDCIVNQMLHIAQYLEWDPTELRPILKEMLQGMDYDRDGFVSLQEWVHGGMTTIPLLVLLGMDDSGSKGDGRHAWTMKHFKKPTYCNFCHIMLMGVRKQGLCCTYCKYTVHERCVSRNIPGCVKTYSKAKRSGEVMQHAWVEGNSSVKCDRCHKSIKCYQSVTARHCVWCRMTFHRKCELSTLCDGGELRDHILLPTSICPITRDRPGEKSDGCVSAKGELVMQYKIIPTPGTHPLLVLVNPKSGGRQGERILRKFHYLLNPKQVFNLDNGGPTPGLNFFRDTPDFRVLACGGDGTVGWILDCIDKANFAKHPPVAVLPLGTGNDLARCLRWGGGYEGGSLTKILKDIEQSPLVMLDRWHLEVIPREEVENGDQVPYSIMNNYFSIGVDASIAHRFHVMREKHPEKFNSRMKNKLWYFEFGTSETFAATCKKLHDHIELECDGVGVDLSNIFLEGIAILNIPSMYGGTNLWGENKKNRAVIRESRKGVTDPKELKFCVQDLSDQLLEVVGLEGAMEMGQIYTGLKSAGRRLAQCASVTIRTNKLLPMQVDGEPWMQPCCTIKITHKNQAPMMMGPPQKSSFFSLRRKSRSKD
Procedure: as §1

[17] = system: HepG2 cells; test: Anti-proliferative SRB assay, HepG2; format: cell-based; settings: Homo sapiens, 72 h, Table S2, ± SD
Procedure: as §4

[18] = Kinetic solubility assay; format: physicochemical; settings: 0.1 M PBS (2% DMSO), aqueous buffer, kinetic from dmso stock; read-out: Kinetic Solubility: Solubility
Procedure: as §2, §3

[19] = biological target: PI4K2a (Homo sapiens, UniProt Q9BTU6); test: Lipid kinase screening (ADP-Glo), PI4K2a; format: biochemical
Sequence of PI4K2a (Q9BTU6 whole entry): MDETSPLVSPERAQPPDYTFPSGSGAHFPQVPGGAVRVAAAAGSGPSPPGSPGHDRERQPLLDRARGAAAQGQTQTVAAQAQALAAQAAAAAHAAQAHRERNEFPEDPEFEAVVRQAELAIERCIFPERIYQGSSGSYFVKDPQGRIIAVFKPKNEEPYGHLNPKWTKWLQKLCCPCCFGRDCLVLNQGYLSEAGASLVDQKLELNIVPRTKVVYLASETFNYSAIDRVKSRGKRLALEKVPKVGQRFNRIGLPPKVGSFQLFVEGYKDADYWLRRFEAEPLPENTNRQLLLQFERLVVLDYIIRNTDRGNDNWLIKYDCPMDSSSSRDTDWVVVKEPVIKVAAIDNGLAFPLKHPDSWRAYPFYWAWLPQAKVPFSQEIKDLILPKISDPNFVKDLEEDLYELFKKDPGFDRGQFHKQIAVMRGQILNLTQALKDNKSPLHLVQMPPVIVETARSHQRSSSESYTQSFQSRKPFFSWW
Procedure: as §1

[20] = system: PNT1A cell line; test: Anti-proliferative SRB assay, PNT1A; format: cell-based; settings: Homo sapiens, PSMA −, Table S3, ± SD
Procedure: as §4

[21] = system: C4-2B cell line; test: Anti-proliferative SRB assay, C4-2B; format: cell-based; settings: Homo sapiens, PSMA +, Table S3, ± SD
Procedure: as §4

[22] = biological target: CHK b (CHKB) (Homo sapiens, UniProt Q9Y259); test: Lipid kinase screening (ADP-Glo), CHKB; format: biochemical
Sequence of CHK b (CHKB) (Q9Y259 whole entry): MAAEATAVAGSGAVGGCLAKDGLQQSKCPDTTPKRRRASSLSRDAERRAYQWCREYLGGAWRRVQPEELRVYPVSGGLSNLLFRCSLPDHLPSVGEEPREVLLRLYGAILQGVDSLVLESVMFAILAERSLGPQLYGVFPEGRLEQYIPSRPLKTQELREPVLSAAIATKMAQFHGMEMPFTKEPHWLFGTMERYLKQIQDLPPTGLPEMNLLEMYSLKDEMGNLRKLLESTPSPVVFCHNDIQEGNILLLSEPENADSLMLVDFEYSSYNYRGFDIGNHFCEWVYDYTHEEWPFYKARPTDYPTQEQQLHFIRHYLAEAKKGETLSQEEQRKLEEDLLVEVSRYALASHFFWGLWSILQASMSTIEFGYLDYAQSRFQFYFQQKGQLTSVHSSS
Procedure: as §1

[23] = HCT-116, PSMA −, Table S3, ± SD
[24] = HCT-116, SRB, 72 h, Table S2, ± SD

Structure (SMILES) | inhibition at 10 µM [1] [%] | efflux ratio [2] | Papp A→B [2] [nm/s] | Papp B→A [2] [nm/s] | GI50 [3] [µM] | inhibition at 10 µM [4] [%] | inhibition at 10 µM [5] [%] | % Inhibition CHK a [5] [%] | inhibition at 10 µM [6] [%] | inhibition at 10 µM [7] [%] | inhibition at 10 µM [8] [%] | GI50 [9] [µM] | inhibition at 10 µM [10] [%] | % Inhibition PI3Ka E524K + p85 [11] [%] | GI50 [12, 23] [µM] | GI50 [12, 24] [µM] | GI50 [13] [µM] | Matrix Stability: Remaining % [14] [%] | half-life [14] [h] | GI50 [15] [µM] | also measured
CC(=O)NCCCCC(NC(=O)OC(C)(C)C)C(=O)N1CCN(c2cc[n+](CCCCCCCCCCCCCC[n+]3ccc(N(C)C)cc3)cc2)CC1 (stereo not shown) [CK145] | 8 | > 2.8 | < 1 | 3 | 2.47 ± 0.06 | 0.4 | 63 | 62.9 | -1 | 2.9 | -1.8 | 5 ± 0.3 | -15.8 | −0.1 | 103 ± 6.27 | 6.63 ± 0.2 | 10.8 ± 1 | 74 | 9.2 | 45.6 ± 6.4 | FaSSGF stability (in words) ([14]; low pH (1.6)): Rapid decomposition; inhibition at 10 µM [16]: 13.2%; GI50 [17]: 2.25 ± 0.06 µM; solubility kinetic [18]: 178 µM; inhibition at 10 µM [19]: -11.4%; GI50 [20]: 63.6 ± 10.4 µM; GI50 [21]: 63 ± 12.1 µM; inhibition at 10 µM [22]: -18.1%
CN(C)c1cc[n+](CCCCCCCCCCCCCC[n+]2ccc(N3CCNCC3)cc2)cc1 [CK146] | 1.1 | > 2.6 | < 1 | 3 | 2.07 ± 0.2 | 1.4 | 69 | 69.1 | -5.4 | 6.7 | -1 | 2.5 ± 0.3 | -45.9 | −6.5 | 4.76 ± 0.8 | 4.76 ± 0.8 | 3.09 ± 0.05 | 92 | > 10 | 4.98 ± 1.5 | inhibition at 10 µM [16]: 10.7%; GI50 [17]: 0.21 ± 0.01 µM; solubility kinetic [18]: 158 µM; inhibition at 10 µM [19]: -13.4%; GI50 [20]: 3 ± 0.26 µM; GI50 [21]: 4.22 ± 0.43 µM; inhibition at 10 µM [22]: -49%
CN(C)c1cc[n+](CCCCCCCCCCCC[n+]2ccc(N(C)C)cc2)cc1 [ICL-CCIC-0019] | 8.6 | > 8.6 | < 1 | 9 | 0.05 ± 0.005 | -16.1 | 53 | 53.4 | 1 | 4.9 | -6.1 | 0.5 ± 0.02 | -39.6 | 1.6 | 0.42 ± 0.03 | 0.42 ± 0.03 | 1.19 ± 0.04 | 117 | > 10 | 0.91 ± 0.13 | inhibition at 10 µM [16]: 7.8%; GI50 [17]: 0.18 ± 0.01 µM; solubility kinetic [18]: 161 µM; inhibition at 10 µM [19]: -13.9%; GI50 [20]: 0.47 ± 0.08 µM; GI50 [21]: 1.2 ± 0.31 µM; inhibition at 10 µM [22]: -28.6%
